Laboratory results as given in US10131652B2, “Pyrimidinyloxy benzene derivatives as herbicides” (E. I. DU PONT DE NEMOURS AND COMPANY, priority 2014, dated 2018).

Tests used:
Type in all cases: in vivo
rice (Oryza sativa) = assay: Test C flooded paddy test plant response; conditions: Flood, 250 g ai/ha; scale of 0 to 100 where 0 is no effect and 100 is complete control; 13 to 15 days
Procedure, shortened: (§1)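 Readout is a visual 0–100 score (100 = complete control) versus controls at 13–15 days. Plants at 2-leaf stage, flooded to 3 cm, treated through paddy water.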

[1] = tested on: barnyardgrass (Echinochloa crus-galli); assay: Test C flooded paddy test plant response; conditions: Flood, 250 g ai/ha; scale of 0 to 100 where 0 is no effect and 100 is complete control; 13 to 15 days
Procedure, shortened: as §1

[2] = tested on: small-flower umbrella sedge (Cyperus difformis); assay: Test C flooded paddy test plant response; conditions: Flood, 250 g ai/ha; scale of 0 to 100 where 0 is no effect and 100 is complete control; 13 to 15 days
Procedure, shortened: as §1

[3] = tested on: ducksalad (Heteranthera limosa); assay: Test C flooded paddy test plant response; conditions: Flood, 250 g ai/ha; scale of 0 to 100 where 0 is no effect and 100 is complete control; 13 to 15 days
Procedure, shortened: as §1

kochia (Kochia scoparia) [4] = assay: Test B pre-/postemergence plant response
Procedure, shortened: (§2)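 Scoring used a 0–100 scale (100 = complete control) by visual comparison with untreated plants after approximately 10 days in the greenhouse. Compounds, in surfactant-containing non-phytotoxic solvent, were sprayed onto soil at planting or onto 2–10 cm seedlings.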

[5] = tested on: ragweed (common ragweed, Ambrosia elatior); assay: Test B pre-/postemergence plant response
Procedure, shortened: as §2

[6] = tested on: wheat (Triticum aestivum); assay: Test B pre-/postemergence plant response; conditions: 0 to 100 scale, 0 no effect, 100 complete control
Procedure, shortened: as §2

[7] = tested on: Italian ryegrass (Lolium multiflorum); assay: Test B pre-/postemergence plant response
Procedure, shortened: as §2

[8] = tested on: barnyardgrass (Echinochloa crus-galli); assay: Test B pre-/postemergence plant response
Procedure, shortened: as §2

[9] = tested on: pigweed (Amaranthus retroflexus); assay: Test B pre-/postemergence plant response
Procedure, shortened: as §2

[10] = tested on: giant foxtail (Setaria faberii); assay: Test B pre-/postemergence plant response
Procedure, shortened: as §2

corn (Zea mays) = assay: Test B pre-/postemergence plant response; conditions: 0 to 100 scale, 0 no effect, 100 complete control
Procedure, shortened: as §2

[11] = tested on: blackgrass (Alopecurus myosuroides); assay: Test B postemergence plant response; conditions: 0 to 100 scale, 0 no effect, 100 complete control
Procedure, shortened: (§3)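 Pots, loam soil + sand; postemergence treatment at 1–2 leaf stage, 2–10 cm; greenhouse ~10 d; visual injury score 0 (none) to 100 (complete control) relative to untreated controls.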

[12] = tested on: galium (catchweed bedstraw, Galium aparine); assay: Test B postemergence plant response; conditions: 0 to 100 scale, 0 no effect, 100 complete control
Procedure, shortened: as §3

wild oat (Avena fatua) = assay: Test D postemergence plant response; conditions: for Oat, Wild plant response rating: scale 0 to 100 (0 no effect, 100 complete control); for Plant response rating, Oat, Wild: scale 0 to 100, 0 no effect, 100 complete control
Procedure, shortened: (§4)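 Visual 0–100 rating vs controls (0 = no effect, 100 = complete control), scored 13–15 d after postemergence spray. Plants 1- to 4-leaf stage (2–18 cm), potted in peat/vermiculite mix, kept in greenhouse.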

kochia (Kochia scoparia) [13] = assay: Test D postemergence plant response; conditions: for Kochia plant response rating: scale 0 to 100 (0 no effect, 100 complete control); for Plant response rating, Kochia: scale 0 to 100, 0 no effect, 100 complete control
Procedure, shortened: as §4

[14] = tested on: chickweed (common chickweed, Stellaria media); assay: Test D postemergence plant response; conditions: for Chickweed plant response rating: scale 0 to 100 (0 no effect, 100 complete control); for Plant response rating, Chickweed: scale 0 to 100, 0 no effect, 100 complete control
Procedure, shortened: as §4

[15] = 31 g ai/ha, Postemergence, 0 to 100 scale, 0 no effect, 100 complete control
[16] = 31 g ai/ha, Preemergence, 0 to 100 scale where 0 is no effect and 100 is complete control
[17] = 125 g ai/ha, postemergence, 0 to 100 scale, 0 no effect, 100 complete control
[18] = Preemergence, 125 g ai/ha, 0 to 100 scale where 0 is no effect and 100 is complete control

Fc1ccc(Oc2ncc(Cl)cn2)c(-c2cc(C(F)F)on2)c1F [Compound 113]
Rice plant response rating (rice (Oryza sativa)): 15
Barnyardgrass plant response rating [1]: 0
Sedge, Umbrella plant response rating [2]: 95
Ducksalad plant response rating [3]: 95
Plant response rating, Kochia (kochia (Kochia scoparia) [4]; [15]): 100
Plant response rating, Kochia (kochia (Kochia scoparia) [4]; [16]): 100
Plant response rating, Kochia (kochia (Kochia scoparia) [4]; [17]): 100
Plant response rating, Kochia (kochia (Kochia scoparia) [4]; [18]): 100
Plant response rating, Ragweed [5, 15]: 50
Plant response rating, Ragweed [5, 16]: 30
Plant response rating, Ragweed [5, 17]: 80
Plant response rating, Wheat ([6]; 31 g ai/ha, Postemergence): 0
Plant response rating, Wheat ([6]; 125 g ai/ha, postemergence): 10
Plant response rating, Ryegrass, Italian [7, 15]: 20
Plant response rating, Ryegrass, Italian [7, 16]: 10
Plant response rating, Ryegrass, Italian [7, 17]: 70
Plant response rating, Barnyardgrass [8, 15]: 60
Plant response rating, Barnyardgrass [8, 16]: 70
Plant response rating, Barnyardgrass [8, 17]: 90
Plant response rating, Barnyardgrass [8, 18]: 100
Plant response rating, Pigweed [9, 15]: 100
Plant response rating, Pigweed [9, 16]: 100
Plant response rating, Pigweed [9, 17]: 100
Plant response rating, Foxtail, Giant [10, 15]: 60
Plant response rating, Foxtail, Giant [10, 16]: 90
Plant response rating, Foxtail, Giant [10, 17]: 90
Plant response rating, Foxtail, Giant [10, 18]: 100
Plant response rating, Corn (corn (Zea mays); 31 g ai/ha, Postemergence): 10
Plant response rating, Corn (corn (Zea mays); 125 g ai/ha, postemergence): 30
Plant response rating, Blackgrass ([11]; 31 g ai/ha, Postemergence): 60
Plant response rating, Blackgrass ([11]; 125 g ai/ha, postemergence): 90
Plant response rating, Galium ([12]; 31 g ai/ha, Postemergence): 90
Plant response rating, Galium ([12]; 125 g ai/ha, postemergence): 100
Oat, Wild plant response rating (wild oat (Avena fatua); 16 g ai/ha): 10
Oat, Wild plant response rating (wild oat (Avena fatua); 31 g ai/ha): 15
Plant response rating, Oat, Wild (wild oat (Avena fatua); 62 g ai/ha): 10
Plant response rating, Oat, Wild (wild oat (Avena fatua); 125 g ai/ha): 25
Kochia plant response rating (kochia (Kochia scoparia) [13]; 16 g ai/ha): 90
Kochia plant response rating (kochia (Kochia scoparia) [13]; 31 g ai/ha): 100
Plant response rating, Kochia (kochia (Kochia scoparia) [13]; 62 g ai/ha): 100
Plant response rating, Kochia (kochia (Kochia scoparia) [13]; 125 g ai/ha): 100
Chickweed plant response rating ([14]; 16 g ai/ha): 70
Chickweed plant response rating ([14]; 31 g ai/ha): 85
Plant response rating, Chickweed ([14]; 62 g ai/ha): 90
Plant response rating, Chickweed ([14]; 125 g ai/ha): 95

FC(Cl)c1cc(-c2ccccc2Oc2ncc(Cl)cn2)no1 (stereo not drawn) [Compound 116]
Rice plant response rating (rice (Oryza sativa)): 30
Barnyardgrass plant response rating [1]: 0
Sedge, Umbrella plant response rating [2]: 90
Ducksalad plant response rating [3]: 95
Plant response rating, Kochia (kochia (Kochia scoparia) [4]; [15]): 90
Plant response rating, Kochia (kochia (Kochia scoparia) [4]; [16]): 60
Plant response rating, Kochia (kochia (Kochia scoparia) [4]; [17]): 90
Plant response rating, Kochia (kochia (Kochia scoparia) [4]; [18]): 60
Plant response rating, Ragweed [5, 15]: 20
Plant response rating, Ragweed [5, 16]: 0
Plant response rating, Ragweed [5, 17]: 40
Plant response rating, Wheat ([6]; 31 g ai/ha, Postemergence): 10
Plant response rating, Wheat ([6]; 125 g ai/ha, postemergence): 20
Plant response rating, Ryegrass, Italian [7, 15]: 0
Plant response rating, Ryegrass, Italian [7, 16]: 0
Plant response rating, Ryegrass, Italian [7, 17]: 30
Plant response rating, Barnyardgrass [8, 15]: 10
Plant response rating, Barnyardgrass [8, 16]: 0
Plant response rating, Barnyardgrass [8, 17]: 30
Plant response rating, Barnyardgrass [8, 18]: 30
Plant response rating, Pigweed [9, 15]: 100
Plant response rating, Pigweed [9, 16]: 70
Plant response rating, Pigweed [9, 17]: 100
Plant response rating, Foxtail, Giant [10, 15]: 20
Plant response rating, Foxtail, Giant [10, 16]: 40
Plant response rating, Foxtail, Giant [10, 17]: 90
Plant response rating, Foxtail, Giant [10, 18]: 90
Plant response rating, Corn (corn (Zea mays); 31 g ai/ha, Postemergence): 20
Plant response rating, Corn (corn (Zea mays); 125 g ai/ha, postemergence): 40
Plant response rating, Blackgrass ([11]; 31 g ai/ha, Postemergence): 20
Plant response rating, Blackgrass ([11]; 125 g ai/ha, postemergence): 30
Plant response rating, Galium ([12]; 31 g ai/ha, Postemergence): 60
Plant response rating, Galium ([12]; 125 g ai/ha, postemergence): 70
Oat, Wild plant response rating (wild oat (Avena fatua); 16 g ai/ha): 5
Oat, Wild plant response rating (wild oat (Avena fatua); 31 g ai/ha): 5
Plant response rating, Oat, Wild (wild oat (Avena fatua); 62 g ai/ha): 10
Plant response rating, Oat, Wild (wild oat (Avena fatua); 125 g ai/ha): 15
Kochia plant response rating (kochia (Kochia scoparia) [13]; 16 g ai/ha): 100
Kochia plant response rating (kochia (Kochia scoparia) [13]; 31 g ai/ha): 100
Plant response rating, Kochia (kochia (Kochia scoparia) [13]; 62 g ai/ha): 100
Plant response rating, Kochia (kochia (Kochia scoparia) [13]; 125 g ai/ha): 100
Chickweed plant response rating ([14]; 16 g ai/ha): 5
Chickweed plant response rating ([14]; 31 g ai/ha): 15
Plant response rating, Chickweed ([14]; 62 g ai/ha): 30
Plant response rating, Chickweed ([14]; 125 g ai/ha): 90
